Results: patent EP4803511A1, “SMALL MOLECULE COMPOUND HAVING SULFONIC ACID OR SULFINIC ACID LACTONE STRUCTURE, COMPOSITION AND USE THEREOF” (Hangzhou Phecdamed Co., Ltd., priority 2023, dated 2025)

Key:
[1] = system: reactive oxygen species (ROS); experiment: Zebrafish oxidative aging model (menadione), ROS content; type: in vivo; details: I-8 at 22.2 µg/mL, 22 hrs, 4 µM menadione; compared with the modeling group, statistical significance
Protocol: (§1) Experimental animal: Healthy wild-type AB strain zebrafish at 48 hpf (hours post-fertilization)
(§2) Healthy AB strain zebrafish were taken as experimental animal. A zebrafish oxidative aging model was constructed using chemical mutagenesis with 4 µM menadione as the modeling drug. Fucoxanthin was used as a positive control compound. After treating the zebrafish oxidative aging model with different concentrations of I-8 for 22 hrs, changes in the reactive oxygen species (ROS) content, β-galactosidase activity, and the expression of three antioxidant and anti-aging related genes (Cu/Zn-sod, Mn-sod, and ampk) were respectively detected and statistically analyzed.
(§3) During the experiment, the modeling drug, positive compound, and I-8 were dispersed together in the culture water of zebrafish. […] Cell ROX™ Deep Red fluorescent probes and β-galactosidase staining kits were used to specifically label ROS and β-galactosidase in the fish, respectively, and the staining intensity was quantified using Image-Pro Plus software. After extracting RNA from the whole fish, the expression changes of three genes (Cu/Zn-sod, Mn-sod, and ampk) in the fish were detected at the mRNA level using Quantitative Real-time PCR (RT-qPCR). The data were statistically analyzed using GraphPad software.

[2] = system: wild-type AB strain zebrafish; experiment: Zebrafish tail amputation model, inflammatory repair efficacy (inflammatory cells at the broken tail); type: in vivo; details: I-8 at 1, 3, and 9 µg/mL, 48 hrs; compared with the modeling group, statistical significance
Protocol: (§4) Experimental animal: Healthy wild-type AB strain zebrafish at 3 dpf (days post fertilization)
Evaluation of wound repair efficacy: Healthy AB strain zebrafish were taken as experimental animal, and randomly divided into blank control group, modeling group, positive control group, and sample group. The zebrafish in the blank control group were treated with culture water; the zebrafish in the modeling group were treated with culture water after cutting the caudal fin; the zebrafish in the positive control group and sample group were treated with 600 µg/mL hyaluronic acid and I-8 with different concentrations (1, 3, 9 µg/mL) respectively after cutting the caudal fin. The larva fish in above groups were placed in a constant temperature incubator at 28.5 °C and kept in continuous darkness for 48 hrs, with the culture medium changed once every 24 hrs. […] The data were statistically analyzed using GraphPad software.
Evaluation of inflammatory repair efficacy: As described above, the larva fish in each group were placed in a constant temperature incubator at 28.5 °C and kept in continuous darkness for 48 hrs. Inflammatory cells in the fish body were labeled with neutral red, and the number of inflammatory cells at the broken tail was counted. The data were statistically analyzed using GraphPad software.

[3] = system: wild-type AB strain zebrafish; experiment: Zebrafish model, relieving stinging efficacy (SDS-induced, movement distance and speed); type: in vivo; details: zebrafish 3 dpf, 100 µM SDS model; effective concentrations 22.2, 66.6, and 200 µg/mL
Protocol: as §4
Evaluation of the relieving stinging efficacy: Healthy AB strain zebrafish were taken and randomly divided into four groups: blank control, modeling group, positive control, and sample group. The zebrafish in the blank control group were treated with embryo culture water; the zebrafish in the modeling group were treated with a modeling drug (100 µM SDS , sodium dodecyl sulfate); the zebrafish in the positive control group were treated with both the modeling agent and a positive control drug (200 µM asiaticoside solution); and the zebrafish in the sample group were treated with both the modeling drug and different concentrations of the test sample (high, medium, and low concentrations). After continuous treatment for a certain period, the zebrafish's behavioral trajectories were recorded using a behavior analyzer, and the changes in total movement distance and speed were statistically analyzed, the results are shown in FIGS. 2-4. […] In the behavioral trajectory diagram in FIG. 2, the black lines represent the zebrafish's behavioral trajectories in the hole; the more numerous and chaotic the lines, the more vigorous the movement of the zebrafish.

Mn-sod = experiment: Zebrafish oxidative aging model (menadione), Mn-sod gene expression by RT-qPCR; type: in vivo; details: I-8 at 2.5, 7.5, and 22.2 µg/mL, 22 hrs, 4 µM menadione; compared to the modeling group, statistical significance
Protocol: as §1, §2, §3

[4] = system: wild-type AB strain zebrafish; experiment: Zebrafish model, relieving anti-inflammatory efficacy (copper sulfate-induced, inflammatory cells at the neurothalamus); type: in vivo; details: zebrafish 3 dpf, 40 µM copper sulfate model; effective concentrations 7.4, 22.2, and 66.6 µg/mL
Protocol: as §4
Evaluation of the relieving stinging efficacy: Healthy AB strain zebrafish were taken and randomly divided into four groups: blank control, modeling group, positive control, and sample group. […] After continuous treatment for a certain period, the zebrafish's behavioral trajectories were recorded using a behavior analyzer, and the changes in total movement distance and speed were statistically analyzed, the results are shown in FIGS. 2-4. […]
Evaluation of the relieving anti-inflammatory efficacy: As described above, the modeling drug was 40 µM copper sulfate, the positive control drug was 200 µM asiaticoside, and the concentrations of I-8 were 66.6, 22.2, and 7.4 µg/mL respectively. After treating zebrafish as described above, inflammatory cells in their bodies were stained, the number of inflammatory cells at the neurothalamus was counted, and statistical analysis was performed.

TNF-α = TNF-α gene expression in HaCaT after UVB radiation (q-PCR); type: cell-based, human; details: UVB 80 mJ/cm^2, 24 hrs, dose-dependent
Description: In the following Test Examples 6-1 and 6-2, using immortalized keratinocytes (HaCaT) and UVB to establish a model, after the compound to be test was applied to HaCaT, the expression levels of TNF-α, IL-8, IL-1β and EP2 were detected; using immortalized keratinocytes (HaCaT) and capsaicin to establish a model, after the compound to be test was applied to HaCaT, the expression level of TRPV1 was detected, so as to evaluate the soothing effect of the test substance from multiple dimensions.
• 1) Cell inoculation: HaCaT cells were inoculated into a 6-well plate at 6×10^5/well, cultured in an incubator (37°C, 5% CO2) for 12 hrs, and a normal control group (0 mJ/cm^2 + vehicle control), a model control group (80 mJ/cm^2 + vehicle control), a low concentration group (80 mJ/cm^2 + low concentration compound), a medium concentration group (80 mJ/cm^2 + medium concentration compound), and a high concentration group (80 mJ/cm^2 + high concentration compounds) were respectively provided. • 2) UVB modeling: The HaCaT cells were washed 3 times with D'Hanks before UVB radiation, 1 mL of D'Hanks was added into the wells, to make the cells to be immersed, and the control group was coated with tinfoil and placed in the dark. […]

ampk = experiment: Zebrafish oxidative aging model (menadione), ampk gene expression by RT-qPCR; type: in vivo; details: I-8 at 2.5 µg/mL, 22 hrs, 4 µM menadione; compared to the modeling group, statistical significance
Protocol: as §1, §2, §3

## O=S1(=O)Oc2cc(O)ccc2-c2ccc(O)cc21 [Compound I-8]
[1]
  ROS content: downregulated
[2]
  number of inflammatory cells at the wound: decreased
[3]
  relieving stinging efficacy: certain relieving stinging efficacy
Mn-sod
  expression of Mn-sod gene: upregulated
[4]
  relieving anti-inflammatory efficacy: certain relieving anti-inflammatory efficacy
TNF-α
  expression level of TNF-α: downregulating
ampk
  expression of the ampk gene: upregulated
